The text below walks through data of PubChem BioAssay AID192 (DTP/NCI, 2004).

For this assay, the system named is BDF1 mice, B16 melanoma ip, median survival T/C. Nature of the assay: NCI In Vivo Anticancer Drug Screen. Data for tumor model B16 Melanoma (intraperitoneal) in B6D2F1 (BDF1) mice. Conditions: endpoint: median survival time, higher = longer survival. The method, boiled down: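 Mice with transplantable tumors; drug vs vehicle groups; endpoint survival or tumor size; value = T/C.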

Setting [1] is: dose: 25.0 mg/kg/injection, schedule: Q01DX009 (ip), vehicle: saline with Tween-80.
Where [2] appears, read: dose: 50.0 mg/kg/injection, schedule: Q01DX009 (ip), vehicle: saline with Tween-80.
Setting [3] is: dose: 100.0 mg/kg/injection, schedule: Q01DX009 (ip), vehicle: saline with Tween-80.

Several values for one entry are separate records, joined by “and”; a condition that tells them apart may be missing. Equal entries are not always repeated. Inconclusive results and toxic doses are left out.

Turning to `CN(C)/N=N/c1nc[nH]c1C(N)=O`, the T/C (dose: 6.25 mg/kg/injection, schedule: Q01DX009 (ip), vehicle: saline) is 110 % of control; the T/C (dose: 6.25 mg/kg/injection, schedule: Q01DX009 (ip), vehicle: steriod suspending solution) was 105 % of control; the T/C (dose: 12.5 mg/kg/injection, schedule: Q01DX009 (ip), vehicle: carboxymethylcellulose (CMC)) is 121 % of control; the T/C (dose: 12.5 mg/kg/injection, schedule: Q01DX009 (ip), vehicle: saline) is 115 % of control; the T/C (dose: 12.5 mg/kg/injection, schedule: Q01DX009 (ip), vehicle: steriod suspending solution) is 107 % of control; the T/C (dose: 13.0 mg/kg/injection, schedule: Q01DX009 (ip), vehicle: saline with Tween-80) was 114 % of control. Further, the T/C by setting is: (dose: 18.75 mg/kg/injection, schedule: Q01DX009 (ip), vehicle: Klucel (hydroxypropylcellulose) (HPC)) 101 % of control; (dose: 18.8 mg/kg/injection, schedule: Q01DX009 (ip), vehicle: saline) 105 % of control; (dose: 18.8 mg/kg/injection, schedule: Q04DX005 (ip), vehicle: saline) 94 % of control; (dose: 25.0 mg/kg/injection, schedule: Q01DX009 (ip), vehicle: carboxymethylcellulose (CMC)) 115 % of control; (dose: 25.0 mg/kg/injection, schedule: Q01DX009 (ip), vehicle: distilled water + Tween-80) 117 % of control; under setting [1], 107 % of control. For the same molecule, the T/C by setting is: (dose: 25.0 mg/kg/injection, schedule: Q01DX009 (ip), vehicle: saline) 102 % of control and 110 % of control and 114 % of control; (dose: 25.0 mg/kg/injection, schedule: Q01DX009 (ip), vehicle: steriod suspending solution) 115 % of control; (dose: 25.0 mg/kg/injection, schedule: Q01DX017 (ip), vehicle: saline) 116 % of control; (dose: 25.0 mg/kg/injection, schedule: Q04DX003 (ip), vehicle: saline with Tween-80) 104 % of control and 105 % of control and 115 % of control; (dose: 27.5 mg/kg/injection, schedule: Q01DX009 (ip), vehicle: saline) 100 % of control; (dose: 37.0 mg/kg/injection, schedule: Q01DX009 (ip), vehicle: saline with Tween-80) 112 % of control. The T/C (dose: 37.5 mg/kg/injection, schedule: Q04DX003 (ip), vehicle: saline) is 100 % of control; the T/C (dose: 37.5 mg/kg/injection, schedule: Q04DX005 (ip), vehicle: saline) was 97 % of control; the T/C (dose: 48.0 mg/kg/injection, schedule: Q01DX005 (ip), vehicle: Klucel (hydroxypropylcellulose) (HPC)) is 99 % of control; the T/C (dose: 50.0 mg/kg/injection, schedule: Q01DX009 (ip), vehicle: carboxymethylcellulose (CMC)) is 110 % of control; the T/C under setting [2] was 124 % of control; the T/C (dose: 50.0 mg/kg/injection, schedule: Q01DX009 (ip), vehicle: saline) is 105 % of control and 114 % of control and 121 % of control. Moreover, the T/C is, setting by setting: (dose: 50.0 mg/kg/injection, schedule: Q01DX009 (ip), vehicle: steriod suspending solution) 115 % of control; (dose: 50.0 mg/kg/injection, schedule: Q01DX017 (ip), vehicle: saline) 114 % of control; (dose: 50.0 mg/kg/injection, schedule: Q04DX003 (ip), vehicle: saline with Tween-80) 115 % of control; (dose: 72.0 mg/kg/injection, schedule: Q01DX005 (ip), vehicle: Klucel (hydroxypropylcellulose) (HPC)) 101 % of control; (dose: 75.0 mg/kg/injection, schedule: Q01DX001 (ip), vehicle: saline) 114 % of control; (dose: 75.0 mg/kg/injection, schedule: Q04DX003 (ip), vehicle: saline) 107 % of control. Also, the T/C is 107 % of control (dose: 75.0 mg/kg/injection, schedule: Q04DX005 (ip), vehicle: saline); 105 % of control (dose: 100.0 mg/kg/injection, schedule: Q01DX009 (ip), vehicle: carboxymethylcellulose (CMC)); 124 % of control (dose: 100.0 mg/kg/injection, schedule: Q01DX009 (ip), vehicle: distilled water + Tween-80); 123 % of control under setting [3]; 110 % of control (2×) and 119 % of control (dose: 100.0 mg/kg/injection, schedule: Q01DX009 (ip), vehicle: saline); 115 % of control (dose: 100.0 mg/kg/injection, schedule: Q01DX009 (ip), vehicle: steriod suspending solution). For the same molecule, the T/C is, setting by setting: (dose: 100.0 mg/kg/injection, schedule: Q01DX017 (ip), vehicle: saline) 123 % of control; (dose: 108.0 mg/kg/injection, schedule: Q01DX005 (ip), vehicle: Klucel (hydroxypropylcellulose) (HPC)) 98 % of control; (dose: 130.0 mg/kg/injection, schedule: Q01DX009 (ip), vehicle: DMSO) 105 % of control; (dose: 148.0 mg/kg/injection, schedule: Q04DX003 (ip), vehicle: saline with Tween-80) 110 % of control; (dose: 150.0 mg/kg/injection, schedule: Q01DX001 (ip), vehicle: saline) 112 % of control; (dose: 150.0 mg/kg/injection, schedule: Q04DX003 (ip), vehicle: saline) 112 % of control. The T/C was 101 % of control (dose: 160.0 mg/kg/injection, schedule: Q01DX005 (ip), vehicle: Klucel (hydroxypropylcellulose) (HPC)); 77 % of control (dose: 166.7 mg/kg/injection, schedule: Q01DX009 (ip), vehicle: saline with Tween-80); 121 % of control (dose: 200.0 mg/kg/injection, schedule: Q01DX009 (ip), vehicle: distilled water + Tween-80); 117 % of control and 118 % of control (dose: 200.0 mg/kg/injection, schedule: Q01DX009 (ip), vehicle: saline); 109 % of control (dose: 200.0 mg/kg/injection, schedule: Q04DX003 (ip), vehicle: saline with Tween-80); 109 % of control (dose: 216.0 mg/kg/injection, schedule: Q01DX009 (ip), vehicle: DMSO). Moreover, the T/C was 115 % of control (dose: 222.0 mg/kg/injection, schedule: Q04DX003 (ip), vehicle: saline with Tween-80); 99 % of control (dose: 240.0 mg/kg/injection, schedule: Q01DX005 (ip), vehicle: Klucel (hydroxypropylcellulose) (HPC)); 53 % of control (dose: 277.8 mg/kg/injection, schedule: Q01DX009 (ip), vehicle: saline with Tween-80); 102 % of control (dose: 300.0 mg/kg/injection, schedule: Q01DX001 (ip), vehicle: saline); 114 % of control (dose: 300.0 mg/kg/injection, schedule: Q04DX003 (ip), vehicle: saline); 115 % of control (dose: 300.0 mg/kg/injection, schedule: Q04DX005 (ip), vehicle: saline). Besides, the T/C is, setting by setting: (dose: 333.0 mg/kg/injection, schedule: Q04DX003 (ip), vehicle: saline with Tween-80) 124 % of control; (dose: 500.0 mg/kg/injection, schedule: Q04DX003 (ip), vehicle: saline with Tween-80) 114 % of control; (dose: 600.0 mg/kg/injection, schedule: Q01DX001 (ip), vehicle: saline) 107 % of control; (dose: 600.0 mg/kg/injection, schedule: Q04DX003 (ip), vehicle: saline) 95 % of control; (dose: 750.0 mg/kg/injection, schedule: Q04DX003 (ip), vehicle: saline with Tween-80) 124 % of control; (dose: 800.0 mg/kg/injection, schedule: Q04DX003 (ip), vehicle: saline with Tween-80) 45 % of control. Also, for the setting “dose: 1200.0 mg/kg/injection, schedule: Q01DX001 (ip), vehicle: saline”, the T/C is 117 % of control.

In the case of `CN(C)N=Nc1cn(C)c(=O)n(C)c1=O`, the T/C is 100 % of control (dose: 12.5 mg/kg/injection, schedule: Q04DX003 (ip), vehicle: Klucel (hydroxypropylcellulose) (HPC)); 118 % of control (dose: 25.0 mg/kg/injection, schedule: Q04DX003 (ip), vehicle: Klucel (hydroxypropylcellulose) (HPC)); 103 % of control (dose: 50.0 mg/kg/injection, schedule: Q04DX003 (ip), vehicle: Klucel (hydroxypropylcellulose) (HPC)).

On to `CCCCCCC(C)NCC(O)COc1cccc(C)c1` (stereo unspecified), for which the T/C by setting is: (dose: 3.12 mg/kg/injection, schedule: Q01DX009 (ip), vehicle: Klucel (hydroxypropylcellulose) (HPC)) 90 % of control; (dose: 6.25 mg/kg/injection, schedule: Q01DX009 (ip), vehicle: Klucel (hydroxypropylcellulose) (HPC)) 94 % of control; (dose: 12.5 mg/kg/injection, schedule: Q01DX009 (ip), vehicle: Klucel (hydroxypropylcellulose) (HPC)) 89 % of control.

Take `CCN(CC)CCNc1ccc(C)c2sc3ccc(O)cc3c(=O)c12`: the T/C (dose: 12.5 mg/kg/injection, schedule: Q01DX009 (ip), vehicle: saline with Tween-80) is 110 % of control; the T/C under setting [1] was 161 % of control; the T/C under setting [2] is 182 % of control; the T/C under setting [3] is 172 % of control.
